{
  "source": "patent US20210069295A1",
  "about": "“GALECTINS CONTROL MTOR IN RESPONSE TO ENDOMEMBRANE DAMAGE AND PROVIDE A MECHANISM AND TARGET FOR THE TREATMENT OF AUTOPHAGY-RELATED DISEASES” (STC. UNM, priority 2017, published 2021)",
  "key": {"Gal8 and Gal9": {"tested_on": "Gal8 and Gal9", "experiment": "Galectin puncta formation by high-content microscopy in HeLa cells", "format": "cell-based", "conditions": "HeLa cells overexpressing GFP-Gal8 or GFP-Gal9, 100 μM, 1 h full medium", "procedure": "(A) Analysis of the puncta formation of galectins in response to GPN. HeLa cells overexpressing YFP-fused with the indicated galectins were treated with 100 μM GPN or without (Ctrl) in full medium for 1 h and galectin puncta were quantified by HC. […] White masks, algorithm defined cell boundaries (primary objects); green masks, computer-identified galectins puncta (target objects). Data, means±SEM, n≥3 independent experiments (500 primary objects counted per well; ≥5 wells/sample per each experiment); *p<0.05, **p<0.01, † p≥0.05, ANOVA. (B) Immunoprecipitation analysis of the interactions between galectins and mTOR or RagA GTPase. HEK293T cells overexpressing FLAG-tagged galectins were subjected to anti-FLAG immunoprecipitation followed by immunoblotting for endogenous mTOR or RagA. (C) Immunoprecipitation analysis of interactions between Gal8 and mTOR protein complexes in response to GPN treatment. […] Biotinylated proteins from HEK293T cell expressing APEX2-vector or APEX2-Gal8, after GPN and biotin phenol (BP) treatment were affinity-enriched by binding to streptavidin-beads, and samples were analyzed by immunoblotting analysis for endogenous RagA, p14, mTOR or Raptor. […]\n(A) HC analysis of the puncta of galectins in response to chloroquine, Bafilomycin A1 and GPN. HeLa cells overexpressing GFP-Gal8 or GFP-Gal9 were treated with 100 μM chloroquine (CQ), […] (BAF) or 100 μM GPN in full medium for 1 h, and the puncta of GFP-Gal8 or GFP-Gal9 were quantified by HC. […] Data, means±SEM, n≥3 independent experiments (500 primary objects counted per well; ≥5 wells/sample per each experiment), † p≥0.05, **p<0.01, ANOVA. […] HeLa cells expressing GFP-Gal8 were treated with 100 μM GPN in full medium for 1 h, and the overlap between GFP-Gal8 and LAMP2 were quantified by HC. […] Data, means±SEM, n≥3 independent experiments (500 primary objects counted per well; ≥5 wells/sample per each experiment), **p<0.01, ANOVA. […]"}, "AMPK": {"tested_on": "AMPK", "experiment": "AMPK activation by immunoblotting of phosphorylated AMPKα, ACC and ULK1 in HEK293A cells", "format": "cell-based", "conditions": "Gal9 KO HEK293A, 1 μM oligomycin 1 h"}, "mTOR, Raptor, RagA, p14": {"tested_on": "mTOR, Raptor, RagA, p14", "experiment": "APEX2 proximity biotinylation with streptavidin enrichment and immunoblotting in HEK293T cells", "format": "cell-based", "conditions": "APEX2-galectin fusions", "procedure": "(A) Analysis of the puncta formation of galectins in response to GPN. HeLa cells overexpressing YFP-fused with the indicated galectins were treated with 100 μM GPN or without (Ctrl) in full medium for 1 h and galectin puncta were quantified by HC. […] White masks, algorithm defined cell boundaries (primary objects); green masks, computer-identified galectins puncta (target objects). Data, means±SEM, n≥3 independent experiments (500 primary objects counted per well; ≥5 wells/sample per each experiment); *p<0.05, **p<0.01, † p≥0.05, ANOVA. (B) Immunoprecipitation analysis of the interactions between galectins and mTOR or RagA GTPase. HEK293T cells overexpressing FLAG-tagged galectins were subjected to anti-FLAG immunoprecipitation followed by immunoblotting for endogenous mTOR or RagA. (C) Immunoprecipitation analysis of interactions between Gal8 and mTOR protein complexes in response to GPN treatment. THP-1 cells not treated or treated with 100 μM GPN in full medium for 1 h were subjected to immunoprecipitation with anti-Gal8 antibody, followed by immunoblotting for endogenous RagA, p14, mTOR or Raptor. (D) Analysis of the proximity of Gal8 to mTOR and other proteins in mTOR complexes in response to GPN. Biotinylated proteins from HEK293T cell expressing APEX2-vector or APEX2-Gal8, after GPN and biotin phenol (BP) treatment were affinity-enriched by binding to streptavidin-beads, and samples were analyzed by immunoblotting analysis for endogenous RagA, p14, mTOR or Raptor. Data, means±SEM, (n=3), **p<0.01, ANOVA. (E) Immunoprecipitation analysis of the interactions between Gal8 and RagA GTPase and its mutants. Lysates of HEK293T cells overexpressing FLAG-Gal8 and HA-tagged RagA proteins (RagAWT, RagAT21L or RagAQ66L) were subjected to anti-FLAG immunoprecipitation, followed by immunoblotting for HA-tagged RagA proteins. (F) Immunoprecipitation analysis of the interactions between Gal8 and RagC GTPase and its mutants. HEK293T cells overexpressing FLAG-Gal8 and HA-tagged RagC proteins (RagCWT, RagCS75L or RagCQ120L) lysates were subjected to anti-FLAG immunoprecipitation, followed by immunoblotting for HA-tagged RagC proteins.\nHEK293T cells transfected with pJJiaDEST-APEX2 or pJJiaDEST-APEX2-Gal8 were incubated with 100 μM GPN (Cayman Chemicals) in full medium for 1 h (confluence of cells remained at 70-80%). Cells were next incubated in 500 μM biotin-phenol (AdipoGen) in full medium for the last 30 min of GPN incubation. A 1 min pulse with 1 mM H2O2 at room temperature was stopped with quenching buffer (10 mM sodium ascorbate, 10 mM sodium azide and 5 mM Trolox in Dulbecco's Phosphate Buffered Saline (DPBS)). All samples were washed twice with quenching buffer, and twice with DPBS.\nFor immunoblotting analysis, cell pellets were lysed with 500 μL ice-cold RIPA lysis buffer (ThermoFisher Scientific) with protease inhibitor cocktail (Roche), 1 mM PMSF (sigma), 10 mM sodium ascorbate, 10 mM sodium azide and 5 mM Trolox, gently pipetted and then the incubated for 30 min. The lysates were clarified by centrifugation at 13,000 rpm for 5 min, followed by measuring protein concentrations using a Pierce BCA Protein Assay kit, with freshly made bovine serum albumin (BSA) solutions as standards. Streptavidin-coated magnetic beads (ThermoFisher Scientific) were washed with RIPA lysis buffer. 3 mg of each sample was mixed with 100 μL of streptavidin beads. […] 15 μL of each sample was separated by SDS-PAGE and analyzed by Western blot using indicated antibodies."}, "TAK1": {"molecular_target": "T1, TAK1 (Homo sapiens, UniProt O43318)", "T1 sequence (O43318 1-606)": "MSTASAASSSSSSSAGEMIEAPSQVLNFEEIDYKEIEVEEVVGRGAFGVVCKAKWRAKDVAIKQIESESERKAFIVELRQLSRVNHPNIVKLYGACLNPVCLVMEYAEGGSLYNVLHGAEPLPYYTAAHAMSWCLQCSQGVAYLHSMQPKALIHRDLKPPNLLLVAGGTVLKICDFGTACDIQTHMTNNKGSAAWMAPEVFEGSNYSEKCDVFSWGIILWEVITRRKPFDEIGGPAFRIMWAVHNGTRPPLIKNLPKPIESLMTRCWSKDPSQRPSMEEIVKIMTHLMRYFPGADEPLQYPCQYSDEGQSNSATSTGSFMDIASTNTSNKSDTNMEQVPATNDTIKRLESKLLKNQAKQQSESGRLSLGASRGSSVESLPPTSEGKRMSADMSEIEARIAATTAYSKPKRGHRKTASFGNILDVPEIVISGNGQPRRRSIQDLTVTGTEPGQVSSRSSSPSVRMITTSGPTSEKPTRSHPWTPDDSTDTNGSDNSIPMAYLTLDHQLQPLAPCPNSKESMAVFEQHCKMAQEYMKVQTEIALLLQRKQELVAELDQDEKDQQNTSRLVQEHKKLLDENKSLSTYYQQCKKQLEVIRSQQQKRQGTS", "experiment": "Co-IP of FLAG-tagged galectins with GFP-tagged TAK1 in HEK293T cells", "format": "binding", "conditions": "HEK293T overexpressing FLAG-tagged galectins and GFP-TAK1", "procedure": "(A) Analysis of the activation of AMPK in wildtype (WT) and the complementation of Gal9 in Gal9-knockout (Gal9KO) HEK293A cells treated with 100 μM GPN in full medium for 1 h. AMPK activity was monitored by immunoblotting analysis of AMPKα (T172) and acetyl-CoA carboxylase (ACC, S79) phosphorylation (phosphorylated AMPKα (T172) and ACC (S79) relative to total AMPKα and ACC respectively). (B) HEK293T cells transfected with scrambled siRNA (Scr) or Gal9 siRNA (Gal9KD) were treated with 2 mM LLOMe in full medium for 1 h, and the cell lysates were analyzed for phosphorylation of indicated proteins. Data, means±SEM, n=3, *p<0.05, ANOVA. (C) HEK293T cells overexpressing FLAG-Gal9 were treated with 2 mM LLOMe in full medium for 1 h. Cell lysates were analyzed for the indicated proteins. Data, means±SEM, n=3, *p<0.05, ANOVA. (D) Immunoprecipitation analysis of the interactions between galectins and TAK1. HEK293T cells overexpressing FLAG-tagged galectins and GFP-tagged TAK1 were subjected to anti-FLAG immunoprecipitation followed by immunoblotting for GFP-tagged TAK1. (E) Schematic diagram of Gal9 domains and deletion constructs. (F) HEK293T cells overexpressing FLAG-tagged full-length or truncated Gal9 and GFPAMPK were subjected to anti-FLAG immunoprecipitation, followed by immunoblotting for GFP-AMPK. (G) HEK293T cells overexpressing FLAG-tagged full-length or truncated Gal9 and GFP-TAK1 were subjected to anti-FLAG immunoprecipitation, followed by immunoblotting for GFP-TAK1. (H) Analysis of the activation of AMPK in HEK293T cells subjected to knockdowns as indicated treated with 100 μM GPN in full medium for 1 h. AMPK activity was monitored by immunoblotting analysis of AMPKα (T172) and acetyl-CoA carboxylase (ACC, S79) phosphorylation (phosphorylated AMPKα (T172) and ACC (S79) relative to total AMPKα and ACC respectively). Cells transfected with scrambled siRNA were as control (Scr). […]"}, "AMPKα": {"tested_on": "AMPKα", "experiment": "Co-IP of FLAG-tagged galectins with endogenous AMPKα in HEK293T cells", "format": "binding", "conditions": "HEK293T overexpressing FLAG-tagged galectins"}},
  "data": [
    {"compound": "CO/C1=C\\C(C)=C\\[C@@H](C)[C@@H](O)[C@@H](C)C/C(C)=C/C=C/[C@H](OC)[C@@H]([C@@H](C)[C@@H](O)[C@H](C)[C@@]2(O)C[C@@H](O)[C@H](C)[C@@H](C(C)C)O2)OC1=O", "note": "[Bafilomycin A 1, Bafilomycin A1]", "values": [
      {"measurement": "Gal8 and Gal9 puncta formation", "setting": "Gal8 and Gal9", "value": "not upon treatment"}
    ]},
    {"compound": "CCN(CC)CCCC(C)Nc1ccnc2cc(Cl)ccc12", "note": "(stereo not drawn) [chloroquine]", "values": [
      {"measurement": "Gal8 and Gal9 puncta formation", "setting": "Gal8 and Gal9", "value": "not upon treatment"}
    ]},
    {"compound": "CC[C@H]1/C=C/C=C/C[C@@H](C)[C@H](O)[C@@](C)(O)C(=O)[C@@H](C)[C@H](O)[C@@H](C)C(=O)[C@@H](C)[C@H](O)[C@@H](C)/C=C/C(=O)O[C@@H]2[C@H](C)[C@H](CC1)O[C@]1(CC[C@H](C)[C@H](C[C@@H](C)O)O1)[C@H]2C", "note": "[oligomycin]", "values": [
      {"measurement": "AMPK phosphorylation in Gal9 KO cells", "setting": "AMPK", "value": "increased AMPK phosphorylation"}
    ]},
    {"compound": "Gal3: cytosolic lectin, galectin-3, used as comparator", "values": [
      {"measurement": "mTOR, Raptor and RagA found in the proximity of the galectin", "setting": "mTOR, Raptor, RagA, p14", "value": "not in the proximity"},
      {"measurement": "interaction with TAK1", "setting": "TAK1", "value": "not"},
      {"measurement": "AMPKα in complexes (co-IP) with galectin", "setting": "AMPKα", "value": "not detected"}
    ]}
  ]
}
